The structures appear in SMILES notation. pKd: −log10 of the molar value. Converted amounts (≈) assume the structure as drawn.

The record followed here is ChEMBL document CHEMBL4811321, “Synthesis and biological evaluation of 3,4-dihydro-1H-[1,4] oxazepino [6,5,4-hi] indol-1-ones and 4,6-dihydrooxepino [5,4,3-cd] indol-1(3H)-ones as Mycobacterium tuberculosis inhibitors” (Bioorg Med Chem, 2021).

The subject of one assay is Mycobacterium tuberculosis. In words: Antitubercular activity against Mycobacterium tuberculosis mc2 6230 assessed as inhibition of bacterial growth incubated for 7 days by microtiter plate assay. The format is functional. The note with it: mc2 6230, 168 h, time 7 day.
For `COc1ccc(/C=C2\Cn3cc(I)c4cccc(c43)C(=O)O2)cc1`, the MIC (in general, the smallest concentration in the dilution series that meets the test's criterion for growth inhibition) was greater than 100 µg/mL.
The same measure, in the same setting: under `O=C1OC(CSc2ccccc2)Cc2cn(Cc3ccccc3)c3cccc1c23` (stereo not given) stands greater than 100 µg/mL; under `COc1ccccc1-c1cn(CC2Cc3cn(Cc4ccccc4)c4cccc(c34)C(=O)O2)nn1` (stereo not given), greater than 100 µg/mL.
In the case of `O=C1O/C(=C/C#Cc2ccccc2)Cn2cc(I)c3cccc1c32`, the MIC was 0.4 µg/mL (≈ 0.941 µM).
On the same count and under the same terms, the result for `CC(C)CCC#C/C=C1\Cn2cc(I)c3cccc(c32)C(=O)O1` reads 0.2 µg/mL (≈ 0.477 µM); that for `O=C1OC(CI)Cc2cn(Cc3ccccc3)c3cccc1c23` (stereo not given), 12.5 µg/mL (≈ 30 µM); that for `O=C1OC(Cn2cc(-c3ccccc3F)nn2)Cc2cn(Cc3ccccc3)c3cccc1c23` (stereo not given), greater than 100 µg/mL.
On the same count and under the same terms, under `CCCCc1cn(CC2Cc3cn(Cc4ccccc4)c4cccc(c34)C(=O)O2)nn1` (stereo not given) stands greater than 100 µg/mL.
Still for that read-out and setting: under `O=C1OC(Cn2cc(CCBr)nn2)Cc2cn(Cc3ccccc3)c3cccc1c23` (stereo not given) stands 25 µg/mL (≈ 53.7 µM); under `COc1cccc(SCC2Cc3cn(Cc4ccccc4)c4cccc(c34)C(=O)O2)c1` (stereo not given), greater than 100 µg/mL.
Take `O=C1OC(Cn2cc(-c3ccc(F)cc3F)nn2)Cc2cn(Cc3ccccc3)c3cccc1c23` (stereo not given): the MIC is greater than 100 µg/mL.
For `CCOC(=O)CCCc1cn(CC2Cc3cn(Cc4ccccc4)c4cccc(c34)C(=O)O2)nn1` (stereo not given), the minimal inhibitory concentration (MIC) was greater than 100 µg/mL.
Same read-out and setting: under `COc1ccc(C#C/C=C2\Cn3cc(I)c4cccc(c43)C(=O)O2)cc1` stands 0.2 µg/mL (≈ 0.439 µM); under `CC(C)CCc1cn(CC2Cc3cn(Cc4ccccc4)c4cccc(c34)C(=O)O2)nn1` (stereo not given), greater than 100 µg/mL.
Consider `CCCCCCCc1cn(CC2Cc3cn(Cc4ccccc4)c4cccc(c34)C(=O)O2)nn1` (stereo not given), for which the MIC was greater than 100 µg/mL.
Same read-out and setting: under `COc1ccc(-c2cn(CC3Cc4cn(Cc5ccccc5)c5cccc(c45)C(=O)O3)nn2)cc1` (stereo not given) stands greater than 100 µg/mL.
As to `CCOC(=O)CCCC#C/C=C1\Cn2cc(I)c3cccc(c32)C(=O)O1`, the minimum inhibitory concentration (MIC) was 0.4 µg/mL (≈ 0.863 µM).
For `O=C1O/C(=C/I)Cn2cc(I)c3cccc1c32`, the MIC was found to be 1.6 µg/mL (≈ 3.55 µM).
For the compound `O=C1OC(Cn2cc(C3CC3)nn2)Cc2cn(Cc3ccccc3)c3cccc1c23` (stereo not given), the MIC is greater than 100 µg/mL.
Still for that read-out and setting: under `O=C1OC(Cn2cc(-c3ccccc3)nn2)Cc2cn(Cc3ccccc3)c3cccc1c23` (stereo not given) stands greater than 100 µg/mL; under `CN(Cc1cn(CC2Cc3cn(Cc4ccccc4)c4cccc(c34)C(=O)O2)nn1)S(C)(=O)=O` (stereo not given), greater than 100 µg/mL.
For `CCCCC#C/C=C1\Cn2cc(I)c3cccc(c32)C(=O)O1`, the MIC was found to be 0.4 µg/mL (≈ 0.987 µM).
Consider `COc1ccccc1SCC1Cc2cn(Cc3ccccc3)c3cccc(c23)C(=O)O1` (stereo not given), for which the MIC was greater than 100 µg/mL.

Target in the next assay: not listed separately
In words: Displacement of UDP-fluorescein from Mycobacterium tuberculosis UDP-galactopyranose mutase by fluorescence polarization assay.
Conditions: not given
For orientation: Polarisation of emitted light reports the rotation of a fluorescent probe.
As for `COc1ccc(C#C/C=C2\Cn3cc(I)c4cccc(c43)C(=O)O2)cc1`, the pKd – broadly, the Kd on a negative log10 scale, so that one unit is a factor of ten – was 4.14.
The compound `O=C1O/C(=C/I)Cn2cc(I)c3cccc1c32` showed a pKd of 3.86.
